Laboratory results published in patent publication US10246442B2, “4-Aminoquinazolin compounds as prolyl hydroxylase inhibitors” (JANSSEN PHARMACEUTICA NV, priority 2011, dated 2019).

Columns and labels:
[1] = system: Erythropoietin secretion, Hep-3B cells; assay: Cellular assay: EPO secretion in Hep-3B cells; assay type: cell-based; settings: Homo sapiens, Hep3B, 100 μM compound, 24 hours, percent of EPO secretion relative to assay control compound 7-[(4-Chloro-phenyl)-(5-methyl-isoxazol-3-ylamino)-methyl]-quinolin-8-ol, read-out: Cellular % EPO Stimulation
Experimental: Hep-3B cells (ATCC, Manassas, Va.) were plated in 96-well plates at 20,000 cells per well in 100 μl of DMEM containing 10% fetal bovine serum, 1% non-essential amino acids, 50 IU/mL of penicillin and 50 μg/mL of streptomycin (all cell culture reagents from Invitrogen, Carlsbad, Calif.). Twenty-four hours after plating, compounds were added and incubated for an additional 24 hours. All compounds were tested with final compound concentrations at 100 μM. Fifty microliters of the supernatant was then transferred to a human Hypoxia assay kit (Meso-Scale Discovery, Gaithersburg, Md.). Erythropoietin in the supernatant was detected according to the manufacturer's instructions as follows. EPO detection plates were blocked with 3% BSA in PBS overnight and 50 μl of the supernatant was incubated at room temperature in an orbital shaker for 2 h. Twenty-five microliters of 0.5 μg/ml anti-EPO detection antibody was added for 2 hours at room temperature in an orbital shaker. After 3 washes in PBS, 150 μl of 1× read buffer is added and the plate is then read on the MSD SECTOR instrument. Data was analyzed by determining the percent of EPO secretion in the presence of 100 μM compound relative to an assay control compound, 7-[(4-Chloro-phenyl)-(5-methyl-isoxazol-3-ylamino)-methyl]-quinolin-8-ol.

PHD2181-417 = PHD2181-417 (Homo sapiens (Human), UniProt Q9GZT9); assay: PHD enzymatic assay ([14C]-succinic acid production); assay type: biochemical; settings: purified PHD2181-417, HIF-1α peptide substrate, 30 min pre-incubation, average of results
Chain of PHD2181-417 (Q9GZT9 181-417): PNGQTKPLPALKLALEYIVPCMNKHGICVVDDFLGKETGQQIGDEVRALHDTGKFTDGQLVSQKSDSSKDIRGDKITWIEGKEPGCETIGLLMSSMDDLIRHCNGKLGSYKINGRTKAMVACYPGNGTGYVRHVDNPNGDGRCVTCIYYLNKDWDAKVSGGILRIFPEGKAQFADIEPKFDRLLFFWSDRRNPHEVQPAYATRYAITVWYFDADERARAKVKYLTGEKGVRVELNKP
Experimental: Expression and Purification of PHD2181-417
The human PHD2 expression construct containing amino acids 181-417 of GenBank Accession ID NM_022051 was cloned into a pBAD vector (Invitrogen), incorporating both an N-terminal histidine tag and a Smt3-tag, both of which are cleaved by Ulp1. Protein production was achieved by expression in BL21 cells grown in Terrific Broth containing 100 μg/ml ampicillin. Cell cultures were inoculated at 37° C. and grown to an OD600 of 0.8. Cultures were induced with 0.1% arabinose and grown overnight at 20° C. with continuous shaking at 225 rpm. Cells were then harvested by centrifugation and stored at −80° C. Cell pellets were suspended in Buffer A (50 mM Tris-HCl pH 7.2, 100 mM NaCl, 100 mM L-arginine, 1 mM TCEP, 0.05% (w/v) NP-40, 50 mM imidazole) followed by the addition of lysozyme and benzonase. Cells were lysed by sonication and the lysate was cleared by centrifugation (15,000 rpm, 90 min, 4° C.). The protein was purified by nickel affinity chromatography using a HisTrap Crude FF column (GE Healthcare). Samples were eluted in Buffer A with a 50-200 mM imidazole gradient. Cleavage of the Smt tag with Ulp1 protease was achieved via overnight incubation with dialyzing against Buffer A. The PHD2181-417 sample was then passed over a second HisTrap Crude FF column (GE Healthcare) to remove uncleaved protein. The flow-through was then dialyzed into 50 mM MES pH 6.0, 1 mM TCEP, 5 mM NaCl for ion exchange chromatography on a HiTrap SP Cation Exchange column (GE Healthcare). The PHD2181-417 protein was eluted with a 0-0.2 M NaCl gradient. Fractions were pooled for further purification by size exclusion chromatography over a Superdex 75 Size Exclusion Column (GE Healthcare). Final protein was concentrated to 4 mg/ml and dialyzed in 10 mM PIPES pH 7.0, 100 mM NaCl, 0.5 mM TCEP.
(10 μM, California Peptide Research Inc., Napa, Calif.), and [5-^14C]-2-oxoglutaric acid (50 mCi/mmol, Moravek Chemicals, Brea, Calif.) in reaction buffer (40 mM Tris-HCl, pH 7.5, 0.4 mg/ml catalase, 0.5 mM DTT, 1 mM ascorbate) for 10 minutes. Compounds were pre-incubated for 30 min before starting the reaction (all test compounds were dissolved at 10 mM in 100% DMSO (w/v) and were tested with final compound concentrations at 100 μM in 1% DMSO (w/v)). The reaction was stopped by addition of 50 μl of 70 mM H3PO4 and 50 μl of 500 mM NaH2PO4, pH 3.2. Detection of [^14C]-succinic acid was achieved by separating from [5-^14C]-2-oxoglutaric acid by incubating the reaction mixture with 100 μl of 0.16 M DNP prepared in 30% perchloric acid. Next, 50 μl of unlabeled 20 mM 2-oxoglutaric acid/20 mM succinic acid, serving as carrier for the radioactivity, was added to the mixture, and was allowed to proceed for 30 minutes at room temperature. The reaction was then incubated with 50 μl of 1 M 2-oxoglutaric acid for 30 additional minutes at room temperature to precipitate the excess DNP. The reaction was then centrifuged at 2800×g for 10 minutes at room temperature to separate [^14C]-succinic acid in the supernatant from the precipitated [^14C]-dinitrophenylhydrazone. Fractions of the supernatant (400 μI) were counted using a beta counter (Beckman Coulter, Fullerton, Calif.). Inhibition of PHD2181-417 activity was measured as a decrease in succinic acid production. The IC50 values were estimated by fitting the data to a three-parameter logistic function using GraphPad Prism, version 4.02 (Graph Pad Software, San Diego, Calif.).

| Enzyme pIC50 (PHD2181-417) | IC50 (PHD2181-417; read-out: Enzyme pIC50 (converted)) [nM] | SMILES | activation at 100 µM [1] [%] |
| --- | --- | --- | --- |
| 7.0 | – | Cc1cccc(C)c1Oc1cc2c(N3CCOCC3)nc(-n3cc(C(=O)O)cn3)nc2cc1F [Example 20, 1-(6-(2,6-Dimethylphenoxy)-7-fluoro-4-morpholinoquinazolin-2-yl)-1H-pyrazole-4-carboxylic acid] | 54 |
| 7.2 | – | CN(C)c1nc(-n2cc(C(=O)O)cn2)nc2ccc(-c3ccccc3)cc12 [Example 41, 1-(4-(Dimethylamino)-6-phenylquinazolin-2-yl)-1H-pyrazole-4-carboxylic acid] | 43 |
| 7.5 | – | Nc1nc(-n2cc(C(=O)O)cn2)nc2ccc(C3CCCCC3)cc12 [Example 24, 1-(4-Amino-6-cyclohexylquinazolin-2-yl)-1H-pyrazole-4-carboxylic acid] | 36 |
| – | 79.4 | COCC(C)Nc1nc(-n2cc(C(=O)O)cn2)nc2cc(F)c(Oc3c(C)cccc3C)cc12 (racemic) [Example 9, (rac)-1-[6-(2,6-Dimethyl-phenoxy)-7-fluoro-4-(2-methoxy-1-methyl-ethylamino)-quinazolin-2-yl]-1H-pyrazole-4-carboxylic acid] | 86 |
| 7.5 | – | CCN(CC)c1nc(-n2cc(C(=O)O)cn2)nc2cc(F)c(OC3CCCCC3)cc12 [Example 102, 1-(6-(Cyclohexyloxy)-4-(diethylamino)-7-fluoroquinazolin-2-yl)-1H-pyrazole-4-carboxylic acid] | 37 |
| 6.4 | – | O=C(O)c1cnn(-c2nc(N3CCOCC3)c3cc(OC4CCCCC4)ccc3n2)c1 [Example 172, 1-(6-(cyclohexyloxy)-4-morpholinoquinazolin-2-yl)-1H-pyrazole-4-carboxylic acid] | 18 |
| 7.0 | – | CC(C)c1ccc2nc(-n3cc(C(=O)O)cn3)nc(N(C)C)c2c1 [Example 185, 1-(4-(dimethylamino)-6-isopropylquinazolin-2-yl)-1H-pyrazole-4-carboxylic acid] | 62 |
| 7.1 | – | O=C(O)c1cnn(-c2nc(N3CCCCCC3)c3cc(C4CCCCC4)ccc3n2)c1 [Example 37, 1-(4-(Azepan-1-yl)-6-cyclohexylquinazolin-2-yl)-1H-pyrazole-4-carboxylic acid] | 17 |
| 5.7 | – | CC(C)c1ccc2nc(-n3cc(C(=O)O)cn3)nc(N3CCOCC3)c2c1 [Example 184, 1-(4-(morpholino)-6-isopropylquinazolin-2-yl)-1H-pyrazole-4-carboxylic acid] | 24 |
| 7.2 | – | N#CNc1nc(-n2cc(C(=O)O)cn2)nc2ccc(C3CCCCC3)cc12 [Example 35, 1-(4-Cyanamido-6-cyclohexylquinazolin-2-yl)-1H-pyrazole-4-carboxylic acid] | 67 |
| 7.2 | – | CN(C)c1nc(-n2cc(C(=O)O)cn2)nc2ccc(C3CCCCC3)cc12 [Example 38, 1-(6-Cyclohexyl-4-(dimethylamino)quinazolin-2-yl)-1H-pyrazole-4-carboxylic acid] | 61 |
| 7.3 | – | O=C(O)c1cnn(-c2nc(Nc3ccccc3)c3cc(C4CCCCC4)ccc3n2)c1 [Example 28, 1-(6-Cyclohexyl-4-(phenylamino)quinazolin-2-yl)-1H-pyrazole-4-carboxylic acid] | 31 |
| 6.8 | – | O=C(O)c1cnn(-c2nc(N3CCOCC3)c3cc(C4CCCCC4)ccc3n2)c1 [Example 33, 1-(6-Cyclohexyl-4-morpholinoquinazolin-2-yl)-1H-pyrazole-4-carboxylic acid] | 36 |
| 6.9 | – | O=C(O)c1cnn(-c2nc(N3CCSCC3)c3cc(C4CCCCC4)ccc3n2)c1 [Example 34, 1-(6-Cyclohexyl-4-thiomorpholinoquinazolin-2-yl)-1H-pyrazole-4-carboxylic acid] | 20 |
| 7.4 | – | CC(C)c1cc2c(N(C)C)nc(-n3cc(C(=O)O)cn3)nc2cc1Cl [Example 161, 1-(7-chloro-4-(dimethylamino)-6-isopropylquinazolin-2-yl)-1H-pyrazole-4-carboxylic acid] | 32 |
| 7.3 | – | CCN(CC)c1nc(-n2cc(C(=O)O)cn2)nc2ccc(C3CCCCC3)cc12 [Example 27, 1-(6-Cyclohexyl-4-(diethylamino)quinazolin-2-yl)-1H-pyrazole-4-carboxylic acid] | 45 |
| 7.2 | – | CCCNc1nc(-n2cc(C(=O)O)cn2)nc2cc(F)c(Oc3c(C)cccc3C)cc12 [Example 8, 1-[6-(2,6-Dimethyl-phenoxy)-7-fluoro-4-propylamino-quinazolin-2-yl]-1H-pyrazole-4-carboxylic acid] | 59 |
| 7.2 | – | O=C(O)c1cnn(-c2nc(N3CCCCC3)c3cc(-c4ccccc4)ccc3n2)c1 [Example 45, 1-(6-Phenyl-4-(piperidin-1-yl)quinazolin-2-yl)-1H-pyrazole-4-carboxylic acid] | 8 |
| 6.9 | – | O=C(O)c1cnn(-c2nc(NC3CCOCC3)c3cc(Oc4ccc(Cl)cc4)ccc3n2)c1 [Example 68, 1-(6-(4-Chlorophenoxy)-4-((tetrahydro-2H-pyran-4-yl)amino)quinazolin-2-yl)-1H-pyrazole-4-carboxylic acid] | 40 |
| 6.7 | – | CN1CCCN(c2nc(-n3cc(C(=O)O)cn3)nc3ccc(Oc4ccc(Cl)cc4)cc23)CC1 [Example 71, 1-(6-(4-Chlorophenoxy)-4-(4-methyl-1,4-diazepan-1-yl)quinazolin-2-yl)-1H-pyrazole-4-carboxylic acid] | 17 |
| 7.0 | – | O=C(O)c1cnn(-c2nc(NC3CC3)c3cc(Oc4ccc(Cl)cc4)ccc3n2)c1 [Example 62, 1-(6-(4-Chlorophenoxy)-4-(cyclopropylamino)quinazolin-2-yl)-1H-pyrazole-4-carboxylic acid] | 32 |
| 7.2 | – | CCN(C)c1nc(-n2cc(C(=O)O)cn2)nc2cc(Cl)c(OC3CCCCC3)cc12 [Example 140, 1-(7-chloro-6-(cyclohexyloxy)-4-(ethyl(methyl)amino)quinazolin-2-yl)-1H-pyrazole-4-carboxylic acid] | 29 |
